From patent US20140357725A1, “TERPENE ANALOGUES AND USES THEREOF FOR TREATING NEUROLOGICAL CONDITIONS” (NEUROQUEST INC., priority 2011, published 2014)
Like-named read-outs stand apart in the source and are kept apart here.

Assays:
[1] = system: voltage-gated Na+ channels; experiment: Sodium (Na+) channel analysis in rat DRG neurons using whole cell patch-clamp; format: cell-based
Procedure: Isolated DRG neurons were suspended in primary neuron basal media and placed on glass coverslips for incubation in humidified atmosphere of 5% CO2 at 37° C. Coverslip carrying cells was transferred to the bath of an inverted microscope (Zeiss), continuously perfused with oxygenated artificial cerebro-spinal fluid (ACSF) containing (in mM) 124 NaCl, 2.5 KCl, 2 CaCl2, 1 MgSO4, 25 NaHCO3, 1 NaH2PO4, and 10 glucose, at a rate of 2-3 ml/min. Recording of whole-cell membrane currents were made at room temperature. Recording pipette (4-6 MO) was filled with internal solution containing (in mM) 145 K-gluconate, 5 NaCl, 1 MgCl2, 0.2 EGTA, 10 HEPES, 2 Mg-ATP, 0.1 Na-GTP, and 10 phosphocreatine. To isolate Na^+ currents, DRG neurons were superfused with ACSF containing tetraethylammonium chloride (TEA) 5 mM, cesium chloride (CsCl) 100 μM and cadmium chloride (CdCl) 1 mM, to block potassium and calcium currents. OBM compounds were freshly dissolved in ASCF containing TEA, CsCl and CdCl, prior application via the bath.
For recording Na^+ currents, cells were held at −60 mV before applying a conditioning hyperpolarizing step (50 ms) to −90 mv to reactivate the voltage-gated Na^+ channels. The conditioning pulse was followed by depolarizing (150 ms) test pulses to 50 mV in 10 mV increments. Na^+ currents were recorded in absence, after 3 min in presence of the drugs and after a recovery time of 3 min.

zebrafish embryos = experiment: Zebrafish response assay (embryonic touch response/swim behaviour, complete anaesthesia); format: in vivo; details: Danio rerio, 1.5 h; complete anaesthesia (scale 1) in 50% of embryos, 90 min at 28° C., 54 hpf AB wild type embryos
Source text: Briefly, the ZEA assay involved applying essential oils, fractions or individual compounds to developmentally staged zebrafish embryos followed by monitoring of embryonic touch response/swim behaviour and evaluation of the dose response relationship for each substance. Using a four point scale to describe the embryonic behaviours (Table 4), initial analysis focused on monitoring and recording these changes and evaluating the level of bioactivity. […] (optimal temperature for embryonic growth) in the diluted compound. • The four point scale (Table 4) was used to evaluate the touch response and swim behaviour for each embryo in all wells. • The effectiveness of the compound was based on its ability to generate complete anesthesia (scale: 1) in 50% of the embryos at a given concentration (EC50). • The EC50 values were calculated using GraphPad Prism® software to analyze the log (dose) response curves. The results are shown in Table 3, and in FIG. 3 as a dose response curve of zebrafish embryo assay, a percentage response versus percentage of compound present.

TRPV1 = biological target: T1, TRPV1 (Homo sapiens, UniProt Q8NER1); experiment: TRPV1 assay, calcium imaging; format: cell-based; details: Ca2+ imaging after 1 μM capsaicin, HEK-TRPV cells
T1 construct: expressed in transfected cells; host or cells: HEK-TRPV cells
Procedure: Briefly, cells were seeded into poly-L-lysine-coated, glass-bottom, 24-well plates (1×10^5 cells/well) and incubated overnight under standard culture conditions to achieve the desired confluency. Culture media was removed and cells were washed twice with HBS prior to incubation for 15 to 60 min at 37° C. with a labelling mixture comprised of Fura-2-AM and pluronic acid in HBS. Data collection occurred over an eight minute period and followed the same general sequence. Following loading, cells were stimulated by addition of 1 μM of capsaicin agonist for 2 min, after which a concentration series of the test sample (e.g. (0.5, 5, 10, 50 μg/ml) was added and imaging continued for an additional 5 min. Capsazepine (20 μM) served as a known reference antagonist, while cells that were mock-treated or received vehicle (e.g., DMSO) alone served as negative controls. For imaging, plates were placed on the stage of an inverted epifluorescence microscope (e.g., Axiovert 200, Zeiss) equipped with a CCD digital camera (e.g., Axiocam MRm, Zeiss). For each well of the plate, a sequence of image pairs (excitation at 340 nm and 380 nm) were collected to capture intracellular calcium flux. Image sequences were analyzed in ImageJ (NIH) and average pixel intensities calculated for six representative cells in each test condition to achieve mean fluorescence.

[2] = Na+ currents, rat DRG neurons, whole-cell patch clamp, 3 min in presence of drug, read-out: IC50

T1 sequence (Q8NER1 whole entry, species assumed): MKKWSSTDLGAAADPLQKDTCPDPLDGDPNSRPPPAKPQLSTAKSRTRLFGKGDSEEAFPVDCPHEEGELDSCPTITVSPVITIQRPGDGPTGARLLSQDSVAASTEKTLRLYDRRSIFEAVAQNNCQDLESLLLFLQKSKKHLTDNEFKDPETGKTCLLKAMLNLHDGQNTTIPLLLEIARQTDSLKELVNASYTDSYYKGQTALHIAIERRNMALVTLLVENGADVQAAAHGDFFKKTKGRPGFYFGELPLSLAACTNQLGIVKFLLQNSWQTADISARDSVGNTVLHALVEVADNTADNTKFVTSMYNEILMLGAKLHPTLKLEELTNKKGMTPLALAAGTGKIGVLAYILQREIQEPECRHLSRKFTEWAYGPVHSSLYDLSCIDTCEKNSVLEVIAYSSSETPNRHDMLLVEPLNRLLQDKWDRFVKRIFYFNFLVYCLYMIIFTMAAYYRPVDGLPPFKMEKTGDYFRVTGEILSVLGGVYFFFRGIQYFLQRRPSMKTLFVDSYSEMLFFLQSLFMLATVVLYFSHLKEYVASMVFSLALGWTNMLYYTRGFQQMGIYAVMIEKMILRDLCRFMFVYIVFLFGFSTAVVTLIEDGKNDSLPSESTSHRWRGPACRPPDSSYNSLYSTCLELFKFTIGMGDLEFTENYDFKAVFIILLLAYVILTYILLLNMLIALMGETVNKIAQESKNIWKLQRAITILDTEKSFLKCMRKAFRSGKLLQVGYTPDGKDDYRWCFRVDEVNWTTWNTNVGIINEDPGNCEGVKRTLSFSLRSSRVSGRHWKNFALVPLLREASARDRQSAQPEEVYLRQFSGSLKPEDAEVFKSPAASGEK

Compound	IC50 [1, 2] [µM]	IC50 ([1]; percentage sodium current versus concentration, FIG. 1, read-out: Calculated IC50) [µM]	IC50 (TRPV1)	EC50 (zebrafish embryos) [µM]
CC(C)=CCCC1(C)CC1CO (centres unmarked) [OBM 2979, (2-methyl-2-(4-methylpent-3-en-1-yl)cyclopropyl)methanol]	100 to 1000	700	agonist	1 to 100
COCC1CC1(C)CCC=C(C)C (centres unmarked) [OBM 2989, 2-(methoxymethyl)-1-methyl-1-(4-methylpent-3-en-1-yl)cyclopropane]	5000 to 10000			> 450
CC(C)=CCCC1(C)CC1COCc1ccccc1Br (centres unmarked) [OBM 2994, 1-bromo-2-(((2-methyl-2-(4-methylpent-3-en-1-yl)cyclopropyl)methoxy)methyl)benzene]	< 10000			> 450
CC(C)=CCCC1(c2ccccc2)CC1CO (centres unmarked) [OBM 2999, (2-(4-methylpent-3-en-1-yl)-2-phenylcyclopropyl) methanol]	1000 to 5000			100 to 450

Further lines, with some results ahead:

IC50 [1, 2] [µM]	IC50 ([1]; percentage sodium current versus concentration, FIG. 1, read-out: Calculated IC50) [µM]	IC50 (TRPV1)	Compound	EC50 (zebrafish embryos) [µM]
< 10000			CC(C)=CCCC1(C)CC1COCc1ccccc1 (centres unmarked) [OBM 2993]	> 450
< 10000			CC(C)=CCCC1(C)CC1COCc1ccccc1Cl (centres unmarked) [OBM 2995, 1-chloro-2-(((2-methyl-2-(4-methylpent-3-en-1-yl)cyclopropyl)methoxy)methyl)benzene]	> 450
